The values below come from US20070087346A1, “Orthogonal gene switches” (priority 2003, published 2007).

Positions count from the first letter of the chain named. pIC50: −log10 of the molar value. Where a name gives a salt, the structure may show the parent alone. Read-outs that look alike come from different tables or passages of the source.

For orientation: pIC50 means −log10 of the IC50, conventionally taken in molar units.

Assay [1] has as its target T1, GST-ERα wt-LBD (Homo sapiens, UniProt P03372).
T1 construct: made in house; host or cells: E. coli BL21 (CodonPlus DE3-RIL)
T1 sequence (P03372 303-595): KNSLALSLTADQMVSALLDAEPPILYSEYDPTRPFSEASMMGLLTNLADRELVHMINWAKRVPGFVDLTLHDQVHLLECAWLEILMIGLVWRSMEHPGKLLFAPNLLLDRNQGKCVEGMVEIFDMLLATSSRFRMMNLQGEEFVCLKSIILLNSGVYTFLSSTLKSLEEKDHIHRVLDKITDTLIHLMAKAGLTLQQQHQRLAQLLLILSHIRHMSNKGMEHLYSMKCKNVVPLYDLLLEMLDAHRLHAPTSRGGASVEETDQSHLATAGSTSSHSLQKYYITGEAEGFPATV
Briefly: competitive radiometric 3[H]E2 displacement binding assay, wt LBD. Here is the method:
Microplates (Basic Flashplates, NEN) wells were coated for 12 hrs at 4° C. with 100 μl of PBS containing anti-GST antibodies (Amersham) at a concentration of 5 μg/ml. After washing three times with 200 μl of PBS, the background was reduced by saturating with 200 μl of PBS containing 1% BSA for 3 hrs at 4° C. Wells were then washed three times with 200 μl of lysis buffer containing 0.1 M NaCl and 0.2% n-Dodecyl BD-maltoside (assay buffer).
Suitable amounts of crude E. coli supernatants containing the GST-ER LBD proteins (2-10 μl) or of purified polypeptides (8 nM) were bound to the anti-GST antibody-coated wells for 1 hr at 23° C. in 200 μl of the assay buffer with constant agitation. After three more washes with 200 μl of the same buffer, the ligand-binding reaction was set up in 195 μl of assay buffer containing 2 nM-10 nM 3[H]E2 and 5 μl of DMSO or of suitable dilutions of the test compounds in DMSO. Incubation was for 2 hrs at 23° C. with constant shaking, followed by SPA radioactivity measurement using a microplate scintillation and luminescence counter (Top Count NXT, Packard). IC50 values were obtained by multiparameter logistic fitting of the experimental data with the aid of a Kaleidagraph software.

Assay [2] deals with hERβ (Homo sapiens, UniProt Q92731). Briefly: binding to full-length hERβ. The conditions noted are these: full-length receptor.
Assay [3] has as its target T2, hERα (Homo sapiens, UniProt P03372).
T2 construct: relative to the wt LBD and to both α and β full-length ER
T2 sequence (P03372 1-595): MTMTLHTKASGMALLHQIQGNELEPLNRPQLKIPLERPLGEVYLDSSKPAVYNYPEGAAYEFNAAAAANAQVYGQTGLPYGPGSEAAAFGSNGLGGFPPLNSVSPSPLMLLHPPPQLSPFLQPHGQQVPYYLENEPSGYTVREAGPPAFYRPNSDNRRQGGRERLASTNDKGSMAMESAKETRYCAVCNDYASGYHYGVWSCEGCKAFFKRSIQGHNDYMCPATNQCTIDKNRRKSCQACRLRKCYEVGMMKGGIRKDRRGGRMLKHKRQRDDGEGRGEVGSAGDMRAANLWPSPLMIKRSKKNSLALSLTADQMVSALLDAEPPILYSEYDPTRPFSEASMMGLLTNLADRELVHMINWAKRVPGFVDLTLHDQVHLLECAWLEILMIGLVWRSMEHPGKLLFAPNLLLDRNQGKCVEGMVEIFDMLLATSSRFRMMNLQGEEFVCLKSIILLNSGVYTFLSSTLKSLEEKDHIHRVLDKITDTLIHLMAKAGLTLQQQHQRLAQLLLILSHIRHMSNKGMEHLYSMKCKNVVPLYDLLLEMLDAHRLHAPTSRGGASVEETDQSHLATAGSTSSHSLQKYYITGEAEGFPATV
Description: binding to full-length hERα.

In assay [4] the target is T3, HEA-1 (Homo sapiens, UniProt P03372, G521R).
T3 sequence (P03372 303-595 G521R): T1 sequence (P03372 303-595) with G219R
The note with it: cell culture; Roscilli et al., 2002; cited from earlier work.

Assay [5] concerns MG-LBD variant with Gly521 substituted with Val, Leu, Met, or Arg. Briefly: β-Galactosidase transcription assay in yeast, Gly521 substitutions in MG-LBD. The conditions noted are these: data not shown. The format is cell-based, human.
Setting [6] is: 3[H]E2 displacement, read-out: GST-ERα wt-LBD IC50.
[7] abbreviates: full-length receptor, read-out: hERα IC50.

Chain of hERβ (Q92731 whole entry): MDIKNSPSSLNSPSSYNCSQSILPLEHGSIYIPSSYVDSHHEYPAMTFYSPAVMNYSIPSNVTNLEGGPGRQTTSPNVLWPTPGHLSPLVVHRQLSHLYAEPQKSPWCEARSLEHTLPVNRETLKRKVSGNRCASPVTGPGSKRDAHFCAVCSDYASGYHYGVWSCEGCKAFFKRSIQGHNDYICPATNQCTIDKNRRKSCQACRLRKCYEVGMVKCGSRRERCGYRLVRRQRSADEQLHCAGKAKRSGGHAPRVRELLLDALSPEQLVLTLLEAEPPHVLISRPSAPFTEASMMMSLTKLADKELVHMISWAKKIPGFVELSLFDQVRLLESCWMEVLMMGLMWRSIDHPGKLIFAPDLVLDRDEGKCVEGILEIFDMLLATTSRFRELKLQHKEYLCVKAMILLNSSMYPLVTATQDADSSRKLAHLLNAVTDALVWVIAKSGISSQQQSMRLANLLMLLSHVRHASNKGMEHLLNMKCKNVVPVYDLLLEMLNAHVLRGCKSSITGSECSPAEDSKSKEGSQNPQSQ

With `O=C1CCC2(Cc3ccccc3)Cc3cc(O)ccc3C2=C1c1ccccn1` (stereo not shown) [CMP13, 9a-benzyl-7-hydroxy-4-py-ridin-2-yl-1,2,9,9a-tetra-hydro-3H-fluor-en-3-one], in assay [1] (setting [6]), the pIC50 is less than 5.44.
In the case of `CCCCC1=C2c3ccc(O)cc3CC2(Cc2ccccc2)CCC1=O` (stereo not shown) [CMP7, 9a-benzyl-4-butyl-7-hy-droxy-1,2,9,9a-tetra-hydro-3H-fluor-en-3-one], the pIC50 in assay [2] was 6.51; in assay [1] (setting [6]), 5.88; in assay [3] (setting [7]) it was 6.59.
4 hydroxytamoxifen [4-OH Tam]: the drug-dependent transgene induction result in assay [4] is recorded as “up to hundred-fold”.
Take `CN(C)CCOc1ccc(C2=C3c4ccc(O)cc4CC3(Cc3ccccc3)CCC2=O)cc1` (stereo not shown) [CMP12, 9a-benzyl-4-{4-[2-(di-methylamino)ethoxy]phe-nyl}-7-hydroxy-1,2,9,9a-tetra-hydro-3H-fluor-en-3-one]: the negative-log IC50 (pIC50) in assay [1] (setting [6]) was 5.38.
Turning to `O=C1CCC2(Cc3ccccc3)Cc3cc(O)ccc3C2=C1c1ccc(O)cc1` (stereo not shown) [CMP6, 9a-benzyl-7-hydroxy-4-(4-hy-droxyphenyl)-1,2,9,9a-tetra-hydro-3H-flour-en-3-one], the values for the pIC50 in assay [2], in assay [1] and in assay [3] were 7.02, 5.86 and 6.65, respectively.
With `CC1=C2c3ccc4[nH]ncc4c3CC2(Cc2cccc(F)c2)CCC1=O` (stereo not shown) [CMP26, 6-methyl-9a-(3-fluoro-benzyl)-8,9,9a,10-tetra-hydroindeno[2,1-e]in-dazol-7(3H)-one], the negative-log IC50 (pIC50) in assay [2] was 5.97.
`CC1=C2c3ccc(O)cc3CC2(Cc2ccccc2)CCC1=O` (stereo not shown) [CMP4, 9a-benzyl-7-hy-droxy-4-methyl-1,2,9,9a-tetra-hydro-3H-fluor-en-3-one]: the “response (trans-activation in yeast)” value in assay [5] is “dramatic loss of response”. Besides, the pIC50 in assay [2] was 6.30; in assay [1] (setting [6]), 5.63; in assay [3], 5.83.
Regarding `O=C1CCC2(Cc3ccccc3)Cc3c(ccc4[nH]ncc34)C2=C1c1ccc(OCCN2CCCCC2)cc1` (stereo not shown) [CMP9, 9a-benzyl-6-{4-[2-(1-pipe-ridinyl)eth-oxy]phenyl}-8,9,9a,10-tetra-hydroindeno[2,1-e]in-dazol-7(3H)-one hydrotrifluoroacetae salt], the negative logarithm of the IC50 (pIC50) in assay [2] is 6.90.
As for `CC1=C2c3ccc4[nH]ncc4c3CC2(Cc2ccccc2F)CCC1=O` (stereo not shown) [CMP27, 6-methyl-9a-(2-fluoro-benzyl)-8,9,9a,10-tetra-hydroindeno[2,1-e]in-dazol-7(3H)-one], the pIC50 in assay [2] is 6.28; in assay [3] (setting [7]) it was 5.37.
Take `CC1=C2c3ccc(O)cc3CC2(Cc2ccc(Cl)cc2)CCC1=O` (stereo not shown) [CMP17, 9a-(4-chlorobenzyl)-7-hy-droxy-4-methyl-1,2,9,9a-tetra-hydro-3%{H}-fluor-en-3-one]: the pIC50 in assay [1] (setting [6]) was 5.17.
Take `CC1=C2c3ccc4[nH]nnc4c3CC2(Cc2ccccc2C(F)(F)F)CCC1=O` (stereo not shown) [CMP34, 9a-[2-(tri-fluoromethyl)benzyl]-6-meth-yl-8,9,9a,10-tetra-hydrofluoreno[1,2-d][1,2,3]tri-azol-7(3H)-one]: the pIC50 in assay [2] and in assay [3] (setting [7]) was less than 5.00 each time.
On to `CC1=C2c3ccc4[nH]ncc4c3CC2(Cc2ccc(F)cc2)CCC1=O` (stereo not shown) [CMP25, 6-methyl-9a-(4-fluoro-benzyl)-8,9,9a,10-tetra-hydroindeno[2,1-e]in-dazol-7(3H)-one], for which the pIC50 in assay [2] is 6.00.
For `O=C1CCC2(Cc3ccccc3)Cc3cc(O)ccc3C2=C1c1cccnc1` (stereo not shown) [CMP14, 9a-benzyl-7-hydroxy-4-py-ridin-3-yl-1,2,9,9a-tetra-hydro-3H-fluor-en-3-one], in assay [1] (setting [6]), the pIC50 was less than 5.44.
Turning to `CC1=C2c3ccc4nn[nH]c4c3CC2(Cc2ccccc2)CCC1=O` (stereo not shown) [CMP30, 9a-benzyl-6-methyl-8,9,9a,10-tetra-hydrofluoreno[1,2-d][1,2,3]tri-azol-7(3H)-one], in assay [2], the pIC50 is 5.38.
For the compound `CC1=C2c3ccc4[nH]ncc4c3CC2(Cc2ccccc2)CCC1=O` (stereo not shown) [CMP5, 6-methyl-9a-ben-zyl-8,9,9a,10-tetra-hydroindeno[2,1-e]in-dazol-7(3H)-one], the pIC50 in assay [2] was 5.90; in assay [1] (setting [6]), less than 5.00; in assay [3] (setting [7]), less than 5.00.
With `O=C1CCC2(Cc3ccccc3)Cc3cc(O)ccc3C2=C1c1ccc(OCCN2CCOCC2)cc1` (stereo not shown) [CMP11, 9a-benzyl-7-hy-droxy-4-{4-[2-(4-mor-pholinyl)-eth-oxy]phenyl}-1,2,9,9a-tetra-hydro-3H-fluor-en-3-one], the pIC50 in assay [1] is 5.64.
Regarding `O=C1CCC2(Cc3ccccc3)Cc3cc(O)ccc3C2=C1c1ccncc1` (stereo not shown) [CMP15, 9a-benzyl-7-hydroxy-4-py-ridin-4-yl-1,2,9,9a-tetra-hydro-3H-fluor-en-3-one], the pIC50 in assay [2] was 6.25; in assay [1] (setting [6]) it was 6.14; in assay [3] (setting [7]) it was 5.93.
Consider `O=C1CCC2(Cc3ccc(Cl)cc3)Cc3cc(O)ccc3C2=C1c1ccc(OCCN2CCCCC2)cc1` (stereo not shown) [CMP8, 9a-(4-chlorobenzyl)-7-hy-droxy-4-{4-[2-(1-pipe-ridinyl)-eth-oxy]phenyl}-1,2,9,9a-tetra-hydro-3H-fluor-en-3-one], for which the pIC50 was 5.65 in assay [2], 5.35 in assay [1] (setting [6]) and 5.96 in assay [3] (setting [7]).
`O=C1CCC2(Cc3ccccc3)Cc3cc(O)ccc3C2=C1c1ccc(OCCN2CCCCC2)cc1` (stereo not shown) [CMP10, 9a-benzyl-7-hy-droxy-4-{4-[2-(1-pipe-ridinyl)-eth-oxy]phenyl}-1,2,9,9a-tetra-hydro-3H-fluor-en-3-one]: the pIC50 in assay [2] was 6.74; in assay [1], 5.90; in assay [3], 6.43.
With `CC1=C2c3cc(Br)c(O)c(Br)c3CC2(Cc2ccccc2)CCC1=O` (stereo not shown) [CMP24, 9a-benzyl-6,8-di-bromo-7-hydroxy-4-meth-yl-1,2,9,9a-tetra-hydro-3%{H}-fluor-en-3-one], the pIC50 in assay [1] (setting [6]) was less than 3.74.
